Here are results for one compound from patent US10815264B2, “Nucleotides for the treatment of cancer” (IDENIX PHARMACEUTICALS LLC, priority 2015, dated 2020).

What all share (assay): In vitro inhibition, CellTiter-Glo (CTG) assay, 72 hr exposure
Holding throughout (assay type): cell-based
(In general: In ATP-based viability assays light output follows the ATP content of the culture.)

Test [1] deals with HepG2. To be noted: Homo sapiens, HepG2, 72 h. On the procedure: (§1) Cells were grown in RPMI-1640 supplemented with L-Glutamine and 10% FBS of the following cell lines:
(§2) CCRF-CEM; CCRF-CEM-cytarabine resistant; HL-60; K562; CFPAC-1; MiaPACA-2; BxPC-3; PANC-1; HepG2; MDA-MB-231; HCT-116; A498; and NCI-H69
(§3) 18, 96 well plates of each cell line were seeded with the optimized number of cells per well in a total volume of 50 μL per well. The plates were left overnight. Plate wells were seeded with 100 μL media for media control. The following day, cells were exposed to test compounds as described below. At the same time as drug exposure, a CTG assay was conducted on the 18th plate for the 0 hr count.
(§4) The compounds were added to cells and medium already on the plate to give desired final concentrations. 50 μL media were added to cell control wells, and 50 μL of mix added to vehicle control wells. 10 μM Doxorubicin was added to appropriate wells. Cells exposed to test compound were incubated at 37° C. for 72 hr followed by a CTG assay.
(§5) At the end of the 72 hr exposure period, plates were removed for a CellTiter-Glo (CTG) assay from a 37° C., 5% CO2 incubator and placed on the bench at room temperature for 30 mins. 100 μL of CellTiter-Glo reagent was added and mixed for 2 mins, followed by a further 10 min incubation at room temperature. Luminescence was recorded using Synergy 4.0.

In test [2] the test system is CFPAC-1. The note with it: Homo sapiens, CFPAC-1, 72 h. The procedure: as §1, §2, §3, §4, §5
The test system of test [3] is MDA-MB-231. The note with it: Homo sapiens, MDA-MB-231, 72 hr. The procedure:
as §1, §2, §3, §4, §5

Test [4] deals with MiaPACA-2. To be noted: Homo sapiens, MIA PaCa-2, MiaPACA-2, 72 hr. On the procedure:
as §1, §2, §3, §4, §5

In test [5] the test system is BxPC-3. To be noted: Homo sapiens, BXPC-3, 72 h. The procedure: as §1, §2, §3, §4, §5
Test [6] relates to CCRF-CEM-cytarabine resistant. On the procedure:
as §1, §2, §3, §4, §5

Test [7] deals with A498. The note with it: Homo sapiens, A498, 72 h. The procedure: as §1, §2, §3, §4, §5
The subject of test [8] is NCI-H69. To be noted: NCI-H69, 72 hr. The procedure:
as §1, §2, §3, §4, §5

Test [9] concerns HCT-116. To be noted: Homo sapiens, HCT-116, 72 h. The procedure:
as §1, §2, §3, §4, §5

The subject of test [10] is CCRF-CEM. On the procedure: as §1, §2, §3, §4, §5
Test [11] deals with PANC-1. The note with it: Homo sapiens, PANC-1, 72 hr. On the procedure:
as §1, §2, §3, §4, §5

Test [12] deals with K562. The note with it: Homo sapiens, K562, 72 hr. The procedure: as §1, §2, §3, §4, §5
Test [13] deals with HL-60. To be noted: HL-60, 72 hr. The procedure:
as §1, §2, §3, §4, §5

For orientation: IC50 means the concentration that inhibits the measured activity by half. Consider `CC(C)(C)SSCCOP(=O)(NCc1ccccc1)OC[C@H]1S[C@@H](n2ccc(N)nc2=O)[C@@H](O)[C@@H]1O` (single isomer, unassigned) [Compound 105 (diastereoisomer 1)], for which the IC50 in test [1] was in the range of 10 to 100 µM; in test [2], 10 to 100 µM; in test [3], 10 to 100 µM; in [4], 1 to 10 µM; in test [5] it was 10 to 100 µM; in test [6], 10 to 100 µM. Further, the IC50 was 10 to 100 µM in test [7]; 1 to 10 µM in test [8]; 10 to 100 µM in test [9]; 1 to 10 µM in [10]; 10 to 100 µM in [11]; 10 to 100 µM in test [12]. Also, in [13], the IC50 was 1 to 10 µM.
